Results taken from patent US10494341B2, “Compound containing indoleacetic acid core structure and use thereof” (Beijing An Jian Xi Bio-Medical Technology Co., Ltd., priority 2015, dated 2019).

How the values were obtained:
Type in all cases: in vivo
COX-1 in gastric mucosa = target: T1, COX-1 in gastric mucosa (Rattus norvegicus, UniProt Q63921); assay: COX-1 activity assay, gastric mucosa (thromboxane B2 EIA) after oral dosing of A23187-treated rats; conditions: for reduction of inhibition against COX-1 in gastric mucosal tissue compared with intermediate I: gavage 1, 3, 9 mg/kg/day, intermediate I 0.5 mg/kg, 6 h after dosing; for effect of inhibiting COX-1 in gastric mucosa: gavage, A23187-activated
T1 construct: from tissue; host or cells: rat gastric mucosa (in vivo dosing, tissue homogenate supernatant)
T1 sequence (Q63921 27-602): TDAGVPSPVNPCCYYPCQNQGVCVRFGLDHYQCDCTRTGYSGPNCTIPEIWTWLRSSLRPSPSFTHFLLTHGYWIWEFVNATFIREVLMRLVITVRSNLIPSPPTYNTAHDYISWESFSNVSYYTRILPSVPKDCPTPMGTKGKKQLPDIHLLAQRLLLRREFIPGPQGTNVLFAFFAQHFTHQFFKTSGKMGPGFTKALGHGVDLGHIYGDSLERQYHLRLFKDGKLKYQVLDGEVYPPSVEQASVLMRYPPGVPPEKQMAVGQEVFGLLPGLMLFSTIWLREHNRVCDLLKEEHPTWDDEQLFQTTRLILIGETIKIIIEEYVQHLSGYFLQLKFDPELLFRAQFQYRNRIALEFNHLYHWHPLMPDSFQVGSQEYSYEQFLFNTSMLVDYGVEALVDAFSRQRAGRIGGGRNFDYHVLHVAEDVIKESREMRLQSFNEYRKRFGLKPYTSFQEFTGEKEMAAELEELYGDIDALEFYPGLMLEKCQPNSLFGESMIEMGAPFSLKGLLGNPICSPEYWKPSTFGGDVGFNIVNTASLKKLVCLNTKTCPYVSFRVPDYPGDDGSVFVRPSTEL
Description: (1) COX-1 activity assay: 2 hours after intraperitoneal injection of calcium ionophore A23187 (50 mg/kg) to rats, each of the compounds a, b, c, d, e and f was orally administered (gavage) to three rats at a dose of 1, 3 and 9 mg/kg/day, respectively; the intermediate I was orally administered as a control drug to three rats at a dose of 0.5 mg/kg; and additional three rats were only administered with COX-1 activator, the calcium ionophore A23187, and were not administered with the compounds of the present invention. 6 hours after the compound of the present invention was administered, the animals were sacrificed, gastric mucosal tissue and myocardial tissue were collected, homogenized, and subjected to high-speed centrifugation (12,000 rpm), and the supernatant was collected for use. The amount of thromboxane B2 was measured using an enzyme-linked immunosorbent assay (EIA) kit (operated in accordance with the instructions provided by the manufacturer) and converted to COX1 activity.
(§1) The percentage inhibition rate against COX-1 (FIG. 1a—gastric mucosa, FIG. 1b—myocardium) and COX-2 (FIG. 1c) and the IC50 values (Table 1a—gastric mucosa; Table 1b—myocardium) of each tested pharmaceutical compound were calculated from the above data.

COX-2 = target: T2, COX-2 (Rattus norvegicus, UniProt P35355); assay: COX-2 activity assay (PGE2 in gastric mucosa, EIA) in LPS-treated rats; conditions: gavage, LPS 2.5 mg/kg-activated
T2 construct: from tissue; host or cells: rat gastric mucosa (LPS-treated rats, in vivo dosing)
T2 sequence (P35355 18-604): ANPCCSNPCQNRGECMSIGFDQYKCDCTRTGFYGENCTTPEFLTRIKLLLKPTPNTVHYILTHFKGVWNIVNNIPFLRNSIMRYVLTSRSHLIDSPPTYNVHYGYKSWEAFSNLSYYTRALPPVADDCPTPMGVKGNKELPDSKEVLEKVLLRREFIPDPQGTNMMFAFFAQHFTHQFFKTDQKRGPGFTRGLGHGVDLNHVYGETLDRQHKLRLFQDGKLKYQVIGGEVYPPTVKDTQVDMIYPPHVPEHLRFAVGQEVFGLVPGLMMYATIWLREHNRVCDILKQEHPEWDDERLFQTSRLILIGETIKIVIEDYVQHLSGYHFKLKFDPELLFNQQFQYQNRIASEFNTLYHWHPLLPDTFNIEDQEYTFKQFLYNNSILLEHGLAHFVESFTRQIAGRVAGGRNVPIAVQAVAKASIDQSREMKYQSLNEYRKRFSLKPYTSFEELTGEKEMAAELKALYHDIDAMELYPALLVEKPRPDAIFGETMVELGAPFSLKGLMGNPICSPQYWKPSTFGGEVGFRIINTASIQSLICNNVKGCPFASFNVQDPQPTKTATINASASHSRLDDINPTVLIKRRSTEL
Description: (2) COX-2 activity assay: The assay was similar to that of COX-1, except that LPS was injected intraperitoneally to rats at a dose of 2.5 mg/kg to activate COX-2 in this experiment. After administration, the content of PGE2 in gastric mucosa was measured using an enzyme-linked immunosorbent assay (EIA) kit (operated according to the instructions provided by the manufacturer) and converted to COX2 activity.
as §1

gastric mucosa = assay: Ulcer induction in rats after gavage (lesions of the gastric mucosa); conditions: for prevalence of ulcer / Ulcer index: gavage three times; for Ulcer index: Dose 90 μM/kg, 12 hours after last gavage; for ulcer at high concentration: gavage, high concentration (90 μM)
peripheral leukocytes = assay: Protection against blood cell (leukocyte) damage induced by paclitaxel; conditions: mice, compounds 6 mg/kg/day gavage; for protective effect on peripheral leukocytes (words): paclitaxel 10 mg/kg/day i.p.; for protective effect on leukocytes at the late stage of chemotherapy: paclitaxel
Description: In this experiment, 10-week-old male mice (C57BL/6J) weighing about 20 grams were used as subjects, and 6 mice were taken as a group. The mice were divided into 5 groups: 1. Paclitaxel; 2. Paclitaxel+amifostine; 3. Paclitaxel+intermediate I+intermediate II; 4. paclitaxel+compound a; and 5. paclitaxel+compound b. Firstly, each group of mice was administered with a protective agent, and the specific amounts were as follows: compounds a and b: each 6 mg/kg/day (8.1 μM), amifostine: 400 mg/kg/day (1.5 mM), intermediate I+Intermediate II: each 3 mg/kg/day (8.1 μM). Except that amifostine was intraperitoneally injected (30 minutes before administering Paclitaxel, amifostine was administered), the other protective agents were administered by gavage (once a day, 25 times continuously). 12 hours after the compound a and the corresponding protective agents were administered, Paclitaxel was intraperitoneally injected (10 mg/kg/day, once every 3 days, 9 times continuously), and 7, 14, 21, 28 days later, blood of mice was drawn respectively. The number of leukocytes was analyzed.

SMILES	reduction of inhibition against COX-1 in gastric mucosal tissue compared with intermediate I (COX-1 in gastric mucosa)	effect of inhibiting COX-1 in gastric mucosa (COX-1 in gastric mucosa)	inhibition against COX-2 (COX-2)	prevalence of ulcer (gastric mucosa; 10 μM)	prevalence of ulcer (gastric mucosa; 30 μM)	prevalence of ulcer (gastric mucosa; 90 μM)	Ulcer index (gastric mucosa)	ulcer at high concentration (gastric mucosa)	protective effect on peripheral leukocytes (words) (peripheral leukocytes)	protective effect on leukocytes at the late stage of chemotherapy (peripheral leukocytes)	protective effect on peripheral leukocytes (words) (peripheral leukocytes; listed as Compound b)
COC1=C(OC)C(=O)C(CCCCCCCCCCOC(=O)Cc2c(C)n(C(=O)c3ccc(Cl)cc3)c3cc(OC)ccc23)=C(C)C1=O [compound a]	~700 fold	almost lose the effect of inhibiting COX-1 in gastric mucosa	significantly enhanced	0/6	0/6	1/6	3.3 ± 0.12	only one rat has light ulcer	apparently reduce radiation-induced peripheral leukocyte damage	significantly better than that of amifostine	–
COc1ccc2c(CC(=O)OCCCCCCCCCCc3c(C)c(O)c(OC)c(OC)c3O)c(C)n(C(=O)c3ccc(Cl)cc3)c2c1 [compound b]	~700 fold	almost lose the effect of inhibiting COX-1 in gastric mucosa	significantly enhanced	0/6	0/6	0/6	0	does not result in ulcer	apparently reduce radiation-induced peripheral leukocyte damage	significantly better than that of amifostine	strongest protective effect
